Where two headings read alike, the source gives them in different places. Starred links: 1 amine or outer side, 2 acyl side, 3 side chain; linkers in the order of their positions; H or OH if unused. Positions of bridges follow the written chain, without caps; N, C: chain ends. Non-standard residues stand in square brackets, D forms with d. Residues, ends and D or L forms follow the SMILES beside them. ξ: configuration not given here. Phe(4-COOH) = N[C@@H](Cc1ccc(C(=O)O)cc1)C(=O)O; Phe(2,4-F2) = N[C@@H](Cc1ccc(F)cc1F)C(=O)O; Phe(3-Me) = Cc1cccc(C[C@H](N)C(=O)O)c1; 2Nal = N[C@@H](Cc1ccc2ccccc2c1)C(=O)O; βAsp = O=C(O)[C@H](CC(=O)[*:2])N[*:1]; NMeThr(3ξ) = CN[C@H](C(=O)O)C(C)O; Aad = N[C@@H](CCCC(=O)O)C(=O)O; NMeL = CN[C@@H](CC(C)C)C(=O)O; Ahp(2) = CCCCC[C@H](N)C(=O)O; NMeNle = CCCC[C@H](NC)C(=O)O; Tle = CC(C)(C)[C@H](N)C(=O)O; NMeS = CN[C@@H](CO)C(=O)O; NHexGly = CCCCCCNCC(=O)O; Nle = CCCC[C@H](N)C(=O)O; Aun = NCCCCCCCCCCC(=O)O; AEEA = NCCOCCOCC(=O)O; ξS = NC(CO)C(=O)O
Target: T1, mouse VISTA (mVISTA) (Mus musculus, UniProt Q9D659)
T1 construct: expressed in transfected cells; host or cells: Human embryonic kidney 293T cells
T1 sequence (Q9D659 33-308): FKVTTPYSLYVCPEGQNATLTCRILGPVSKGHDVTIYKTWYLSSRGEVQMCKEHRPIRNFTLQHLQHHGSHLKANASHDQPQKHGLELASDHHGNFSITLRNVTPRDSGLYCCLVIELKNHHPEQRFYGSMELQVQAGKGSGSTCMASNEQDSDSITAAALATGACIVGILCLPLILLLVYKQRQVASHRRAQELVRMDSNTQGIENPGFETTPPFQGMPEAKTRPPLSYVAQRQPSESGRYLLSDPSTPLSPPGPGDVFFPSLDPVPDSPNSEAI
Experiment: Cell-Based Binding High-Content Assay For mVISTA (HC CBA mVISTA)
How it was run: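 This high-content binding assay uses HEK293T cells expressing murine VISTA, measuring displacement of 2 nM biotinylated peptide by fluorescent streptavidin imaging. IC50 values come from four-parameter logistic fitting.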

[1] = 293T cells expressing mouse VISTA, competition with biotinylated peptide (2 nM), read-out: HC CBA mVISTA IC50
[2] = cell-based binding high-content assay, mVISTA, read-out: HC CBA miPr ISTA IC50

CCCCCCN1CC(=O)N[C@@H](Cc2ccc(O)cc2)C(=O)N[C@@H](CCCC(=O)O)C(=O)N[C@@H](CC(N)=O)C(=O)N[C@@H](CCCNC(=N)N)C(=O)N(C)[C@@H](CCCC)C(=O)N[C@@H](CCCCC)C(=O)N2CCC[C@H]2C(=O)N[C@@H](C(C)(C)C)C(=O)N[C@@H](CC(=O)O)C(=O)N[C@H](C(N)=O)CSCC(=O)N[C@@H](Cc2ccccc2)C(=O)N[C@@H](Cc2c[nH]c3ccccc23)C(=O)N[C@@H](CC(=O)O)C1=O [compound 1169] ({CH2CO}-FWD[NHexGly]Y[Aad]NR[NMeNle][Ahp(2)]P[Tle]DC-NH2; thioether N-14)
IC50 (read-out: HC CBA mVISTA IC50): 38.4 nM

CCCCCCN1CC(=O)N[C@@H](Cc2ccc(O)cc2)C(=O)N[C@@H](CC(C)C)C(=O)NCC(=O)N[C@@H](CCCNC(=N)N)C(=O)N[C@@H](Cc2ccc(O)cc2)C(=O)N[C@@H](CCCCC)C(=O)N2CCC[C@H]2C(=O)N[C@@H](C(C)C)C(=O)N[C@@H](CC(=O)O)C(=O)N[C@H](C(=O)NCC(N)=O)CSCC(=O)N[C@@H](Cc2ccccc2)C(=O)N[C@@H](Cc2ccc(O)cc2)C(=O)N[C@@H](CC(=O)O)C1=O [Example 1096] ({CH2CO}-FYD[NHexGly]YLGRY[Ahp(2)]PVDCG-NH2; thioether N-14)
IC50 [1]: 15.5 nM

CCCCCCN1CC(=O)N[C@@H](Cc2ccc(O)cc2)C(=O)N[C@@H](C(C)C)C(=O)NCC(=O)N[C@@H](CCCNC(=N)N)C(=O)N[C@@H](CC(C)C)C(=O)N[C@@H](CCCCC)C(=O)N2CCC[C@H]2C(=O)N[C@@H](C(C)C)C(=O)N[C@@H](CC(=O)O)C(=O)N[C@H](C(=O)N[C@@H](CC(N)=O)C(N)=O)CSCC(=O)N[C@@H](Cc2ccc3ccccc3c2)C(=O)N[C@@H](Cc2ccc(O)cc2)C(=O)N[C@@H](CC(=O)O)C1=O [Ex 1310] ({CH2CO}-[2Nal]YD[NHexGly]YVGRL[Ahp(2)]PVDCN-NH2; thioether N-14)
IC50 (cell-based binding high-content assay, mVISTA, the 16th table, read-out: HC CBA mVISTA IC50): 3.4 nM

CCCCCCN1CC(=O)N[C@@H](Cc2ccc(O)cc2)C(=O)N[C@@H](CCCCC)C(=O)N[C@@H](CC(N)=O)C(=O)N[C@@H](CCCNC(=N)N)C(=O)N(C)[C@@H](CCCC)C(=O)N[C@@H](CCCCC)C(=O)N2CCC[C@H]2C(=O)N[C@@H](C(C)C)C(=O)N[C@@H](C(C)C)C(=O)N[C@H](C(=O)NC(CO)C(=O)O)CSCC(=O)N[C@@H](Cc2ccc(F)cc2F)C(=O)N[C@@H](Cc2ccc(F)cc2F)C(=O)N[C@@H](CC(=O)O)C1=O (some centres unmarked) [compound 1219] ({CH2CO}-[Phe(2,4-F2)][Phe(2,4-F2)]D[NHexGly]Y[Ahp(2)]NR[NMeNle][Ahp(2)]PVVC[ξS]-OH; thioether N-14)
IC50 (read-out: HC CBA mVISTA IC50): 33.9 nM

CCCCCCN1CC(=O)N[C@@H](Cc2ccc(O)cc2)C(=O)N[C@@H](CCCCC)C(=O)N[C@@H](CC(N)=O)C(=O)N[C@@H](CCCNC(=N)N)C(=O)N[C@@H](CC(C)C)C(=O)N[C@@H](CCCCC)C(=O)N2CCC[C@H]2C(=O)N[C@@H](C(C)C)C(=O)N[C@@H](CO)C(=O)N[C@H](C(=O)NCC(N)=O)CSCC(=O)N[C@@H](Cc2ccccc2)C(=O)N[C@@H](Cc2c[nH]c3ccccc23)C(=O)N[C@@H](CC(=O)O)C1=O [Example 1354] ({CH2CO}-FWD[NHexGly]Y[Ahp(2)]NRL[Ahp(2)]PVSCG-NH2; thioether N-14)
IC50 (read-out: HC CBA mVISTA IC50): 20.3 nM

CCCCCCN1CC(=O)N[C@@H](Cc2ccc(O)cc2)C(=O)N[C@@H](CCCCC)C(=O)N[C@@H](CC(N)=O)C(=O)N[C@@H](CCCNC(=N)N)C(=O)N(C)[C@@H](CCCC)C(=O)N[C@@H](CCCCC)C(=O)N2CCC[C@H]2C(=O)N[C@@H](C(C)C)C(=O)N[C@@H](CC(=O)O)C(=O)N[C@H](C(=O)NC(CO)C(=O)O)CSCC(=O)N[C@@H](Cc2ccc(F)cc2F)C(=O)N[C@@H](Cc2ccc(F)cc2F)C(=O)N[C@@H](CC(=O)O)C1=O (some centres unmarked) [compound 1218] ({CH2CO}-[Phe(2,4-F2)][Phe(2,4-F2)]D[NHexGly]Y[Ahp(2)]NR[NMeNle][Ahp(2)]PVDC[ξS]-OH; thioether N-14)
IC50 (read-out: HC CBA mVISTA IC50): 23.6 nM

CCCCCCN1CC(=O)N[C@@H](Cc2ccc(O)cc2)C(=O)N[C@@H](CCCC)C(=O)N[C@@H](CC(N)=O)C(=O)N[C@@H](CCCNC(=N)N)C(=O)N(C)[C@@H](CCCC)C(=O)N[C@@H](CCCCC)C(=O)N2CCC[C@H]2C(=O)N[C@@H](C(C)(C)C)C(=O)N[C@@H](CO)C(=O)N[C@H](C(=O)N[C@@H](CC(N)=O)C(=O)O)CSCC(=O)N[C@@H](Cc2ccccc2)C(=O)N[C@@H](Cc2c[nH]c3ccccc23)C(=O)N[C@@H](CC(=O)O)C1=O [Example 1402] ({CH2CO}-FWD[NHexGly]Y[Nle]NR[NMeNle][Ahp(2)]P[Tle]SCN-OH; thioether N-14)
IC50 (read-out: HC CBA mVISTA IC50): 33.8 nM

CCCCCCN1CC(=O)N[C@@H](Cc2ccc(O)cc2)C(=O)N[C@@H](CCCC)C(=O)N[C@@H](CC(N)=O)C(=O)N[C@@H](CCCNC(=N)N)C(=O)N[C@@H](CC(C)C)C(=O)N[C@@H](CCCCC)C(=O)N2CCC[C@H]2C(=O)N[C@@H](C(C)C)C(=O)N[C@@H](CC(=O)O)C(=O)N[C@H](C(=O)NCC(=O)O)CSCC(=O)N[C@@H](Cc2ccccc2)C(=O)N[C@@H](Cc2ccc(O)cc2)C(=O)N[C@@H](CC(=O)O)C1=O [Example 1020] ({CH2CO}-FYD[NHexGly]Y[Nle]NRL[Ahp(2)]PVDCG-OH; thioether N-14)
IC50 [1]: 22.5 nM

CCCCCCN1CC(=O)N[C@@H](Cc2ccc(O)cc2)C(=O)N[C@@H](CC(C)C)C(=O)N[C@@H](CC(N)=O)C(=O)N[C@@H](CCCNC(=N)N)C(=O)N(C)[C@@H](C(C)O)C(=O)N[C@@H](CCCCC)C(=O)N2CCC[C@H]2C(=O)N[C@@H](C(C)(C)C)C(=O)N[C@@H](CC(=O)O)C(=O)N[C@H](C(=O)N[C@@H](CC(=O)NCCOCCOCC(=O)N[C@@H](CC(=O)O)C(=O)NCCOCCOCC(=O)NCCCCCCCCCCC(=O)O)C(=O)O)CSCC(=O)N[C@@H](Cc2ccccc2)C(=O)N[C@@H](Cc2c[nH]c3ccccc23)C(=O)N[C@@H](CC(=O)O)C1=O (some centres unmarked) [compound 2042] ({CH2CO}-FWD[NHexGly]YLNR[NMeThr(3ξ)][Ahp(2)]P[Tle]DC[βAsp][AEEA]D[AEEA][Aun]-OH; thioether N-14)
IC50 [2]: 30.8 nM

CCCCCCN1CC(=O)N[C@@H](Cc2ccc(O)cc2)C(=O)N[C@@H](CC(C)C)C(=O)NCC(=O)N[C@@H](CCCNC(=N)N)C(=O)N(C)[C@@H](CCCC)C(=O)N[C@@H](CCCCC)C(=O)N2CCC[C@H]2C(=O)N[C@@H](C(C)C)C(=O)N[C@@H](CO)C(=O)N[C@H](C(=O)NCC(N)=O)CSCC(=O)N[C@@H](Cc2ccccc2)C(=O)N[C@@H](Cc2ccc(O)cc2)C(=O)N[C@@H](CC(=O)O)C1=O [Example 1081] ({CH2CO}-FYD[NHexGly]YLGR[NMeNle][Ahp(2)]PVSCG-NH2; thioether N-14)
IC50 (293T cells expressing mouse VISTA, competition with biotinylated peptide (2 nM), read-out: CBA mVISTA IC50): 4.6 nM

CCCCCCN1CC(=O)N[C@@H](Cc2ccc(O)cc2)C(=O)N[C@@H](CC(C)C)C(=O)N[C@@H](CC(N)=O)C(=O)N[C@@H](CCCNC(=N)N)C(=O)N(C)[C@@H](CC(C)C)C(=O)N[C@@H](CCCCC)C(=O)N2CCC[C@H]2C(=O)N[C@@H](C(C)(C)C)C(=O)N[C@@H](CO)C(=O)N[C@H](C(=O)N[C@@H](CC(=O)NCCOCCOCC(=O)N[C@@H](CC(=O)O)C(=O)NCCOCCOCC(=O)NCCCCCCCCCCC(=O)O)C(=O)O)CSCC(=O)N[C@@H](Cc2ccc(C(=O)O)cc2)C(=O)N[C@@H](Cc2ccc(O)cc2)C(=O)N[C@@H](CC(=O)O)C1=O [compound 2052] ({CH2CO}-[Phe(4-COOH)]YD[NHexGly]YLNR[NMeL][Ahp(2)]P[Tle]SC[βAsp][AEEA]D[AEEA][Aun]-OH; thioether N-14)
IC50 [2]: 31.7 nM

CCCCCCN1CC(=O)N[C@@H](Cc2ccc(O)cc2)C(=O)N[C@@H](CC(C)C)C(=O)N[C@@H](CC(N)=O)C(=O)N[C@@H](CCCNC(=N)N)C(=O)N(C)[C@@H](CCCC)C(=O)N[C@@H](CCCCC)C(=O)N2CCC[C@H]2C(=O)N[C@@H](C(C)(C)C)C(=O)N[C@@H](CO)C(=O)N[C@H](C(=O)N[C@@H](CC(=O)NCCOCCOCC(=O)N[C@@H](CC(=O)O)C(=O)NCCOCCOCC(=O)NCCCCCCCCCCC(=O)O)C(=O)O)CSCC(=O)N[C@@H](Cc2ccccc2)C(=O)N[C@@H](Cc2cccc(C)c2)C(=O)N[C@@H](CC(=O)O)C1=O [compound 2076] ({CH2CO}-F[Phe(3-Me)]D[NHexGly]YLNR[NMeNle][Ahp(2)]P[Tle]SC[βAsp][AEEA]D[AEEA][Aun]-OH; thioether N-14)
IC50 (cell-based binding high-content assay, mVISTA, read-out: HC CBA miPrISTA IC50): 38.1 nM

CCCCCCN1CC(=O)N[C@@H](Cc2ccc(O)cc2)C(=O)N[C@@H](CCCC)C(=O)N[C@@H](CC(N)=O)C(=O)N[C@@H](CCCNC(=N)N)C(=O)N(C)[C@@H](CO)C(=O)N[C@@H](CCCCC)C(=O)N2CCC[C@H]2C(=O)N[C@@H](C(C)C)C(=O)N[C@@H](CC(=O)O)C(=O)N[C@H](C(=O)NCC(=O)O)CSCC(=O)N[C@@H](Cc2ccccc2)C(=O)N[C@@H](Cc2c[nH]c3ccccc23)C(=O)N[C@@H](CC(=O)O)C1=O [Example 1408] ({CH2CO}-FWD[NHexGly]Y[Nle]NR[NMeS][Ahp(2)]PVDCG-OH; thioether N-14)
IC50 (read-out: HC CBA mVISTA IC50): 20.8 nM

CCCCCCN1CC(=O)N[C@@H](Cc2ccc(O)cc2)C(=O)N[C@@H](CCCCC)C(=O)N[C@@H](CC(N)=O)C(=O)N[C@@H](CCCNC(=N)N)C(=O)N[C@@H](CC(C)C)C(=O)N[C@@H](CCCCC)C(=O)N2CCC[C@H]2C(=O)N[C@@H](C(C)C)C(=O)N[C@@H](CC(N)=O)C(=O)N[C@H](C(=O)NCC(=O)O)CSCC(=O)N[C@@H](Cc2ccccc2)C(=O)N[C@@H](Cc2ccc(O)cc2)C(=O)N[C@@H](CC(=O)O)C1=O [Example 1026] ({CH2CO}-FYD[NHexGly]Y[Ahp(2)]NRL[Ahp(2)]PVNCG-OH; thioether N-14)
IC50 [1]: 5.5 nM

Reference: US20240218022A1, “ANTI-VISTA MACROCYCLIC PEPTIDES AND COMPOSITIONS” (BRISTOL-MYERS SQUIBB COMPANY, priority 2022, published 2024)
